Results reported in patent publication US20220339261A1, “ORAL PHARMACEUTICAL COMPOSITION INCLUDING TERIPARATIDE AND METHOD FOR PREPARING SAME” (ICURE BNP CO., LTD., priority 2019, published 2022).

Assays:
[1] = Rat bioavailability / pharmacokinetics, plasma teriparatide by ELISA; settings: for AUCinf / AUClast: mean ± SD (n = 4)
Description: After anesthesia by intraperitoneal injection of ketamine (45 mg/kg) and xylazine (5 mg/kg) to female Sprague-Dawley rats (200-250 g, 6-7 weeks old), the abdomen of the rat was cut to take out the small intestine, and Examples 1 and 4 and Comparative Examples 1 and 2 prepared above were dispersed in purified water, and then injected into a proximal jejunum in an amount corresponding to 100 μg/kg as teriparatide by 400 μL. In addition, in order to evaluate the relative bioavailability, 150 μL of teriparatide solution dissolved in physiological saline was subcutaneously injected at an amount corresponding to 20 μg/kg as teriparatide.
After drug administration, blood samples were collected 150 μL at regular time intervals and mixed with 3.8% aqueous sodium citrate solution of 50 μL. Thereafter, the blood sample was centrifuged for 15 minutes at 2,500×g, at 4° C., and plasma was collected and stored at −70° C. The teriparatide concentration in plasma was measured at a wavelength of 620 nm using the human PTH (1-34) ELISA kit (ALPCO Diagnostics, USA). The pharmacokinetic parameters are estimated through the non-compartment method using WinNonlin S Software (ver. 5.3; Pharsight Corporation, USA) and are shown in Table 6 and FIG. 1.

[2] = Apparent permeability through Caco-2 cell monolayer (Transwell); format: in vitro ADME; settings: Caco-2 monolayer, 200 μM as teriparatide in HBSS, 37° C., up to 5 hours; mean ± SD (n = 4); read-out: Apparent transmittance (Papp)
Description: The apparent permeability of the complexes prepared as in Example 1 and Comparative Examples 1 to 7 to the intestinal cell membrane, Caco-2 cell membrane, was evaluated as follows. After Caco-2 cells were treated at a concentration of 1×10^5 cells/mL in 24-well Transwell, respectively, and after culturing the cells for 14 to 16 days, a cell monolayer of the electrical resistance (TEER) value through the Caco-2 cell membrane was >350 Ω·cm^2 was used for the experiment. First, the medium was removed from the Transwell, and then the donor part and receiving part were filled with HBSS and cultured at 37° C. for 20 minutes, then the TEER value was measured again, and then HBSS was removed. […] At 0.5, 1, 2, 3, 4, and 5 hours, 100 μL samples were collected from the receiving part, filtered using a membrane filter (pore 0.45 μm, PVDF), and the concentration of teriparatide permeated through the intestinal cell membrane was analyzed by HPLC under the conditions mentioned in Experimental Example 1. Apparent intestinal cell membrane permeability (Papp) was calculated using Formula 2 below, and the results are shown in Table 3. […]

[3] = Parallel artificial membrane permeability assay (PAMPA), effective permeability of teriparatide; format: in vitro ADME; settings: PBS pH 6.8, 200 μg/mL as teriparatide, room temperature, 5 hours, mean ± SD (n = 4)
Description: Effective permeability (Pe) through the artificial intestinal membrane of Examples 1 and Comparative Examples 1 to 7 prepared above was evaluated using the parallel artificial membrane permeability assay (PAMPA), which is an artificial intestinal membrane permeability evaluation system. First, the samples of Example 1 and Comparative Examples 1 to 7 were dissolved in phosphate buffer (PBS, pH 6.8) to a concentration of 200 μg/mL as teriparatide, and then 200 μL each was added to the donor part of the PAMPA system, and 300 μL of phosphate buffer (PBS, pH 6.8) was filled in the receiving part of the PAMPA system. […] Then, the solution of each well of the receiving part and the donor part was filtered through a membrane filter having a pore diameter of 0.45 μm, and then the concentration of teriparatide permeated through the artificial intestinal membrane was analyzed using the HPLC system under the following conditions.
50 μL of each sample was injected into the HPLC system, and acetonitrile (B) containing 0.1% (w/v) trifluoroacetic acid (TFA) aqueous solution (A) and 0.1% (w/v) TFA as mobile phases were separated by linearly changing the composition of mobile phase B from 51% to 76% for 25 minutes at a flow rate of 1.0 mL/min. Teriparatide was measured at 220 nm, and the effective transmittance (Pe) through the artificial intestinal membrane was calculated by Formula 1 below. […]

[4] = female, Sprague-Dawley, plasma, sc, 0.02 mg/kg
[5] = subcutaneous injection, 0.02 mg/kg as teriparatide
[6] = dosing in jejunum, 0.1 mg/kg as teriparatide

CC[C@H](C)[C@H](NC(=O)[C@H](CCC(=O)O)NC(=O)[C@H](CO)NC(=O)[C@@H](NC(=O)[C@@H](N)CO)C(C)C)C(=O)N[C@@H](CCC(N)=O)C(=O)N[C@@H](CC(C)C)C(=O)N[C@@H](CCSC)C(=O)N[C@@H](Cc1cnc[nH]1)C(=O)N[C@@H](CC(N)=O)C(=O)N[C@@H](CC(C)C)C(=O)NCC(=O)N[C@@H](CCCCN)C(=O)N[C@@H](Cc1cnc[nH]1)C(=O)N[C@@H](CC(C)C)C(=O)N[C@@H](CC(N)=O)C(=O)N[C@@H](CO)C(=O)N[C@@H](CCSC)C(=O)N[C@@H](CCC(=O)O)C(=O)N[C@@H](CCCN=C(N)N)C(=O)N[C@H](C(=O)N[C@@H](CCC(=O)O)C(=O)N[C@@H](Cc1c[nH]c2ccccc12)C(=O)N[C@@H](CC(C)C)C(=O)N[C@@H](CCCN=C(N)N)C(=O)N[C@@H](CCCCN)C(=O)N[C@@H](CCCCN)C(=O)N[C@@H](CC(C)C)C(=O)N[C@@H](CCC(N)=O)C(=O)N[C@@H](CC(=O)O)C(=O)N[C@H](C(=O)N[C@@H](Cc1cnc[nH]1)C(=O)N[C@@H](CC(N)=O)C(=O)N[C@@H](Cc1ccccc1)C(=O)O)C(C)C)C(C)C [Teriparatide]
Cmax [1, 4]: 0.805 ± 0.209 ng/mL
Tmax [1, 4]: 15 min
bioavailability [1, 4]: 100%
AUCinf [1, 5]: 0.765 ± 0.199 ng ·) sh/mL
AUClast [1, 5]: 0.734 ± 0.191 ng ·) sh/mL

CC[C@H](C)[C@H](NC(=O)[C@H](CCC(=O)O)NC(=O)[C@H](CO)NC(=O)[C@@H](NC(=O)[C@@H](N)CO)C(C)C)C(=O)N[C@@H](CCC(N)=O)C(=O)N[C@@H](CC(C)C)C(=O)N[C@@H](CCSC)C(=O)N[C@@H](Cc1cnc[nH]1)C(=O)N[C@@H](CC(N)=O)C(=O)N[C@@H](CC(C)C)C(=O)NCC(=O)N[C@@H](CCCCN)C(=O)N[C@@H](Cc1cnc[nH]1)C(=O)N[C@@H](CC(C)C)C(=O)N[C@@H](CC(N)=O)C(=O)N[C@@H](CO)C(=O)N[C@@H](CCSC)C(=O)N[C@@H](CCC(=O)O)C(=O)N[C@@H](CCCN=C(N)N)C(=O)N[C@H](C(=O)N[C@@H](CCC(=O)O)C(=O)N[C@@H](Cc1c[nH]c2ccccc12)C(=O)N[C@@H](CC(C)C)C(=O)N[C@@H](CCCN=C(N)N)C(=O)N[C@@H](CCCCN)C(=O)N[C@@H](CCCCN)C(=O)N[C@@H](CC(C)C)C(=O)N[C@@H](CCC(N)=O)C(=O)N[C@@H](CC(=O)O)C(=O)N[C@H](C(=O)N[C@@H](Cc1cnc[nH]1)C(=O)N[C@@H](CC(N)=O)C(=O)N[C@@H](Cc1ccccc1)C(=O)O)C(C)C)C(C)C [compound 1]
Papp [2]: 0.362 ± 0.045 ×10⁻⁶ cm/s
bioavailability ([1]; 0.1 mg/kg): 0.81 ± 0.191%
AUCinf [1, 6]: 0.031 ± 0.007 ng ·) sh/mL
AUClast [1, 6]: 0.030 ± 0.007 ng ·) sh/mL
AUC(0-t) ([1]; in vivo, 0.1 mg/kg): 0.03 ± 0.007 ng·h/mL
Cmax ([1]; in vivo, 0.1 mg/kg): 0.041 ± 0.01 ng/mL
Tmax ([1]; in vivo, 0.1 mg/kg): 19.8 ± 8.4 min
Effective transmittance (Pe) [3]: 0.582 ± 0.132 ×10^−6 cm/s
